Results reported in US20240181022A1, “AMURINS LYSINS, AND LYSIN-ANTIMICROBIAL PEPTIDE (AMP) CONSTRUCTS ACTIVE AGAINST GRAM-NEGATIVE BACTERIA” (priority 2021, published 2024).
In brackets after ≈: the same amount, converted by molar mass. Where a SMILES comes first, the peptide text is derived from it. [ ]: non-standard residue; d: D form.

Tests used:
M. smegmatis = experiment: MIC against M. smegmatis; assay type: cell-based, Mycobacterium smegmatis; details: M. smegmatis (MC 155); CAAT media
M. avium = experiment: MIC against M. avium; assay type: cell-based, Mycobacterium avium; details: M. avium (ATCC 700898); CAAT media
A. ruhlandii = experiment: MIC by broth microdilution against A. ruhlandii; assay type: cell-based, Achromobacter ruhlandii; details: A. ruhlandii isolates
Experimental: (§1) MIC values were determined using a modification of the standard broth microdilution reference method defined by the Clinical and Laboratory Standards Institute (CLSI), CLSL. 2015. Methods for Dilution Antimicrobial Susceptibility Tests for Bacteria That Grow Aerobically; Approved Standard-10th Edition. Clinical and Laboratory Standards Institute, Wayne, PA. The modification was based on the replacement of Mueller Hinton Broth with either CAA media (with and without NaCl) or CAA supplemented with 2.5% human serum. MIC is the minimum concentration of peptide sufficient to suppress at least 80% of the bacterial growth compared to control.
(§2) Based on these nine most prevalent strains, direct lytic agents, including GN370, AM1, AM2, and AM3, were evaluated against various isolates from each of the 9 strains. MICs and MBECs (Example 3) were determined, and a sputum inhibition test was conducted, as described below in Example 5.
(§3) The MICs for were determined as described below using the broth microdilution method for meropenem, GN370, AM1, AM2, and AM3. The results are shown below in Tables 8-12.

Achromobacter spp. = experiment: MIC by broth microdilution against Achromobacter spp.; assay type: cell-based; details: Tables 8-12
Experimental: as §1, §3

B. cenocepacia = experiment: MIC by broth microdilution against B. cenocepacia; assay type: cell-based, Burkholderia cenocepacia; details: B. cenocepacia isolates
Experimental: as §1, §2, §3

B. gladioli = experiment: MIC by broth microdilution against B. gladioli; assay type: cell-based, Burkholderia gladioli; details: B. gladioli isolates
Experimental: as §1, §2, §3

B. multivorans = experiment: MIC by broth microdilution against B. multivorans; assay type: cell-based, Burkholderia multivorans; details: B. multivorans isolates
Experimental: as §1, §2, §3

P. apista = experiment: MIC by broth microdilution against P. apista; assay type: cell-based, Pandoraea apista; details: P. apista isolates
Experimental: as §1, §2, §3

P. aeruginosa [1] = experiment: Time-kill assay in cystic fibrosis patient sputum, P. aeruginosa; assay type: cell-based, Pseudomonas aeruginosa
Source text: Sputum from 5 cystic fibrosis patients was pooled. The resulting mixture was not filtered, as it was very dense and not amenable to sterilization by filtration. Sputum is known to be a complex mixture of DNA, carbohydrates, and lipids ([…], 2016). As used herein, the term “sputum” refers to the mucus present in the respiratory tract of an animal, such as a human. Sputum may increase in thickness due to the irritation or infection, including bacterial infection, and in some instances, may be expelled by the animal while coughing. In certain instances, cystic fibrosis may be characterized by the presence of a thick, sticky mucus or sputum present in the lungs of cystic fibrosis patients. The activity of GN370, AM1, AM2, AM3, and meropenem was determined in the sputum using a time-kill assay format as disclosed in Zhang et al., Antimicrobial peptide therapeutics for cystic fibrosis, Antimicrobial Agents Chemother. 2005; 49(7):2921-2927. […] Untreated controls were included in addition to pretreatment plating (t=0) for a baseline CFU determination. Activity was also determined in the absence of sputum for comparison to activity observed in the presence of sputum.

P. aeruginosa [2] = experiment: Serial passage resistance development study, P. aeruginosa; assay type: cell-based, Pseudomonas aeruginosa; details: P. aeruginosa strain CFS 1292, Day 28
S. maltophilia = experiment: Serial passage resistance development study, S. maltophilia; assay type: cell-based, Stenotrophomonas maltophilia; details: S. maltophilia, day 28, triplicate
[3] = tested on: Gram-negative bacteria (including P. aeruginosa, E. cloacae, K. pneumoniae, E. coli, and A. baumannii); experiment: Inner membrane depolarization (diSC3-5 release); assay type: cell-based; details: equivalent or superior to melittin, LL37, RI-18, and PMBN
Source text: The mechanism of action of Chp peptides disclosed herein can also be evaluated by measuring the depolarization of the inner membrane of Gram-negative bacteria, including MDR and XDR strains. The inner membrane comprises […] phospholipids such as cardiolipin, phosphatidylglycerol, and phosphatidylserine. This creates a net negative charge at physiological pH, which is believed to enhance the binding of cationic peptides, including the Chp peptides disclosed herein. Upon permeabilization of the outer membrane, the ability of Chp peptides to induce dissipation of the cytoplasmic membrane electrical potential gradient (Ay) may be examined, for example by following the release of 3,3′-dipropylthiadicarbocyanine (diSC3-5) as a function of time compared to an untreated control. DiSC3-5 is a fluorophore that is a caged cation concentrated within the bacterial inner membrane and under the influence of the bacterial membrane electrical potential gradient. At high concentrations, diSC3-5 self-quenches, leading to the suppression of fluorescence. When the inner membrane deteriorates or becomes leaky for cations, including protons, the Δψ dissipates, which leads to a release of diSC3-5 and a subsequent increase in fluorescence. […] Without wishing to be bound by theory, it is believed that the adsorption and binding of Chp peptides to the inner membrane and insertion into the lipid bilayer results in membrane permeabilization and pore/ion channel formation, which is concomitant with the collapse of the membrane's electrical potential.

A. dolens = assay type: cell-based, Achromobacter dolens
Experimental: The MBEC (after 2-hour treatments) was determined as described in Jones and Wozniak, PsI Produced by Mucoid Pseudomonas aeruginosa Contributes to the Establishment of Biofilms and Immune Evasion, Am. Soc. Microbiol. 2017, 8(3):e00864-17. Meropenem and tobramycin were included as controls and were both poorly active, with MBEC90 values of >256 μg/mL (data not shown).

P. aeruginosa [4] = tested on: P. aeruginosa

`CC[C@H](C)[C@H](NC(=O)[C@@H](CCCNC(=N)N)NC(=O)[C@H](Cc1ccccc1)NC(=O)CNC(=O)CNC(=O)[C@@H](CCCNC(=N)N)NC(=O)[C@H](CCSC)NC(=O)[C@@H]1CCCN1C(=O)[C@@H](CCCNC(=N)N)NC(=O)[C@H](C)NC(=O)[C@@H](CCCNC(=N)N)NC(=O)[C@H](CC(C)C)NC(=O)[C@H](CC(N)=O)NC(=O)[C@@H](CCCNC(=N)N)NC(=O)[C@@H](CCCCN)NC(=O)[C@@H](CCCCN)NC(=O)[C@@H](NC(=O)[C@H](CC(N)=O)NC(=O)[C@@H](NC(=O)[C@H](C)NC(=O)CNC(=O)[C@@H](CCCNC(=N)N)NC(=O)[C@@H](NC(=O)[C@H](Cc1ccccc1)NC(=O)[C@@H](NC(=O)[C@@H](CCCCN)NC(=O)[C@@H](CCCNC(=N)N)NC(=O)[C@H](CO)NC(=O)[C@@H](CCCCN)NC(=O)[C@@H](CCCCN)NC(=O)[C@@H](CCCCN)NC(=O)[C@H](CO)NC(=O)[C@H](CC(C)C)NC(=O)[C@@H](CCCCN)NC(=O)[C@@H](CCCNC(=N)N)NC(=O)[C@@H](CCCNC(=N)N)NC(=O)[C@@H](CCCCN)NC(=O)[C@@H](N)CCSC)[C@@H](C)CC)[C@@H](C)O)C(C)C)C(C)C)C(=O)O` [AM3] (H-M[dK][dR][dR][dK]LS[dK][dK][dK]S[dR][dK]IFT[dR]GAVNV[dK][dK][dR]NL[dR]A[dR]PM[dR]GGF[dR]I-OH; N-terminus and C-terminus assumed) gave an MIC (M. smegmatis) of 1 µg/mL (≈ 0.219 µM), an MIC (M. avium) of 1 Tg/mL and an MIC50 (A. ruhlandii) of 1 µg/mL (≈ 0.219 µM). The MIC90 (A. ruhlandii) was over 128 µg/mL, the “activity (MIC) against Achromobacter spp.” value (Achromobacter spp.) was “variably active” and the MIC50 (B. cenocepacia) was over 128 µg/mL. It also gave an MIC90 (B. cenocepacia) of over 128 µg/mL, an MIC50 (B. gladioli) of 32 µg/mL (≈ 7 µM) and an MIC90 (B. gladioli) of 128 µg/mL (≈ 28 µM). It also gave an MIC50 (B. multivorans) of over 128 µg/mL, an MIC90 (B. multivorans) of over 128 µg/mL and an MIC50 (P. apista) of over 128 µg/mL. For the same molecule, the MIC90 (P. apista) was over 128 µg/mL, the “effect of sputum on antibacterial activity” value (P. aeruginosa [1]; 10% CF sputum vs no sputum) was “not inhibited” and the “Log10 CFU/mL of sputum” value (P. aeruginosa [1]; absence of sputum, 1 hr) was 2.3 Log10 CFU/mL of sputum. For the same molecule, the “Log10 CFU/mL of sputum” value (P. aeruginosa [1]; absence of sputum, 3 hr) was 2.3 Log10 CFU/mL of sputum, the “Log10 CFU/mL of sputum” value (P. aeruginosa [1]; absence of sputum, 24 hr) was 2.3 Log10 CFU/mL of sputum and the “Log10 CFU/mL of sputum” value (P. aeruginosa [1]; presence of 10% sputum, 1 hr) was 2.3 Log10 CFU/mL of sputum. For the same molecule, the “Log10 CFU/mL of sputum” value (P. aeruginosa [1]; presence of 10% sputum, 3 hr) was 2.3 Log10 CFU/mL of sputum, the “Log10 CFU/mL of sputum” value (P. aeruginosa [1]; presence of 10% sputum, 24 hr) was 2.3 Log10 CFU/mL of sputum and the “killing by 1 hour, maintained by 24 hours” value (P. aeruginosa [1]; time-kill) was “complete killing”. For the same molecule, the “change in MIC over serial passage” value (P. aeruginosa [2]) was “no significant changes”, the “change in MIC over serial passage” value (S. maltophilia) was “no increase in MIC” and the “inner membrane depolarization (diSC3-5)” value [3] was “dose-dependent increase in membrane depolarization”. The MBEC50 (A. dolens) was 2 µg/mL, the MBEC90 (A. dolens) was 16 µg/mL and the “MBEC Range” value (A. dolens) was 1 to 32 µg/mL. The MBEC50 (P. aeruginosa [4]) was 0.125 µg/mL, the MBEC90 (P. aeruginosa [4]) was 1 µg/mL and the “MBEC Range” value (P. aeruginosa [4]) was 0.016 to 1 µg/mL. The “antibiofilm activity (MBEC) against P. aeruginosa” value (P. aeruginosa [4]; 2-hour treatments) was “primarily active”.
